Test results as given in PMC5693757 (Journal of molecular biology, 2017).

Columns and labels:
Type in all cases: binding
ARL2 [1] = target: T1, ARL2 (Homo sapiens, UniProt P36404); assay: radioligand nitrocellulose filter trapping
ARL2 [2] = target: T1, ARL2; assay: real-time mant fluorescence association/dissociation kinetics
ARL2 [3] = target: T1, ARL2; assay: HDX-MS

T1 sequence (P36404 2-184): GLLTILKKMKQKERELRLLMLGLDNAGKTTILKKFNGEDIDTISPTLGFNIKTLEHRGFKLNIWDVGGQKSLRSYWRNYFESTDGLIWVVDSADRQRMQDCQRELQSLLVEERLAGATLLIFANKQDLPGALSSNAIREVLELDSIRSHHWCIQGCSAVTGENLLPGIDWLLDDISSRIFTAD

Nc1nc2c(ncn2[C@@H]2O[C@H](COP(=O)(O)OP(=O)(O)OP(O)(O)=S)[C@@H](O)[C@H]2O)c(=O)[nH]1 [GTPγS]
radioligand nitrocellulose filter trapping; HDX-MS (ARL2 [1]): Human ARL2 monomer, exogenously expressed and purified from E. coli or HEK cells, bound GTPγS to similar stoichiometries

mant-Gpp(NH)p
Kd (ARL2 [2]): 590 nM

Nc1nc2c(ncn2[C@@H]2O[C@H](COP(=O)(O)OP(=O)(O)O)[C@@H](O)[C@H]2O)c(=O)[nH]1 [GDP]
HDX-MS (ARL2 [3]): addition of GDP to ARL2 (apo→GDP) resulted in large protection to deuterium uptake at the conserved nucleotide-binding motifs G1 and G4
